“And” between values parts separate entries of the source, which are not always exact repeats. Equal values may be shown once.
Tested on: 885724-159-R-J1-PDC complex spheroid viability
Test: Anticancer human tumor 885724-159-R-J1-PDC patient-derived pancreatic adenocarcinoma cell line growth inhibition [POLQ]
Details: for viability, T/C: stronger effect = lower value
Procedure: Multicellular complex tumor spheroid response to Polymerase (POL) inhibitors (novobiocin, ART-558, RP6685) in combination with a variety of drugs and investigational agents in selected tumor cell lines
The POL inhibitors (novobiocin, ART-558, and RP6685) were evaluated both individually and in combination with standard of care and investigational anticancer small molecules within a complex spheroid model of solid tumors. . Complex spheroids include a stromal component modeled by human endothelial cells (HUVEC) and fibroblasts modeled by human mesenchymal stem cells (MSCs). The concentration ranges selected for each drug and investigational agent were based upon clinically achievable concentrations if the clinical Cmax of the agent was known.
Compounds. The drugs and investigational agents: novobiocin (NSC847541), ART-558 (NSC835418), RP-6685 (NSC848927), peposertib (NSC802822), ceralasertib (NSC780249), elimusertib (NSC800525), camonsertib (NSC841442), AZD-1390 (NSC803789), olaparib (NSC753686), talazoparib (NSC767125), rucaparib (NSC756644), sotorasib (NSC818433), MRTX-1133 (NSC836407), SN-38 (NSC673596), topotecan (NSC609699), epotoside (NSC141540), doxorubicin (NSC123127), gemcitabine (NSC613327), 5-fluorouracil (NSC19893), paclitaxel (NSC125973), vemurafenib (NSC761431), MSA-2 (NSC828583), SN-011 (NSC837082), adavosertib (NSC754352), prexasertib (NSC758257), carboplatin (NSC241240) and oxaliplatin (NSC266046), were obtained from the National Cancer Institute (NCI) Developmental Therapeutics Program Chemical Repository (21). The FDA-approved anticancer drug set is available from the Developmental Therapeutics Program at https://dtp.cancer.gov/organization/dscb/obtaining/. […] The stock solutions were prepared in dimethyl sulfoxide (DMSO, Sigma-Aldrich, St. Louis, MO, cat. D2650), except for the platinum compounds which were prepared in saline (Quality Biological, Gaithersburg, MD, cat. 114-055-101), at 800-fold the tested concentration and stored at -70 degrees C prior to their use. All drugs and investigational agents were tested over a range starting from a high concentration at or near the clinical Cmax and decreasing in half-log increments. If the clinical Cmax for an agent had not been determined, the highest concentration tested was 10 microM, except for SN-38, which was tested at a high concentration of 1 microM.
Cell Culture. All cells were maintained in an incubator at 37 degrees C and 5% CO2 with 95% humidity. The PDC lines were cultured according to standard operating procedures established by the NCI PDMR (https://pdmr.cancer.gov). Table 3 of the manuscript, lists the cell lines along with the number of the three cell types plated to form the mct-spheroids and media for tumor cell growth. After thawing, all PDC lines, except 997537-175-T-J1-PDC and 415267-285-R-J2-PDC, were cultured in Matrigel-coated flasks prepared with a working solution of 1X Ham's F-12 nutrient mix, without supplementation (Thermo Fisher Scientific, cat. 11765054), 100 U/mL penicillin-streptomycin (Thermo Fisher Scientific, cat. 15140122), and 2.5% Matrigel (Corning Inc., Corning, NY, cat. 354248) for the first three passages. The two PDC lines 997537-175-T-J1-PDC and 415267-285-R-J2-PDC were cultured on uncoated flasks. The 857933-349-R-J2-PDC line was cultured in 6C/Colon 1B media containing advanced DMEM/F-12 (Thermo Fisher Scientific, cat. 12634028), 10 mM HEPES (Thermo Fisher Scientific, cat. 15630080), 1X GlutaMAX supplement (Thermo Fisher Scientific, cat. 35050061), 0.1 mg/mL primocin (InvivoGen, San Diego, CA, cat. ant-pm-2), 10% defined fetal bovine serum, heat inactivated (HyClone Laboratories Inc., Logan, UT, cat. SH30070.03HI), 50% L-WRN conditioned media (ATCC, cat. CRL-3276), 1.25 mM N-Acetyl-L-cysteine (Sigma-Aldrich, cat. A9165), 10 mM nicotinamide (Sigma-Aldrich, cat. N0636), 1X B-27 supplement (Thermo Fisher Scientific, cat. 17504044), 1X N-2 supplement (Thermo Fisher Scientific, cat. […]
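Further: spheroids exposed to compounds for 7 days.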

COc1cc2cc(C(=O)CCC(=O)O)sc2cc1OC
viability, T/C (compound 0.0316 µM): 102% and 90.8% and 94.2%
viability, T/C (compound 0.1 µM): 96.9% and 97.3% and 92%
viability, T/C (compound 0.316 µM): 98.9% and 97.8% and 108%
viability, T/C (compound 1 µM): 96.4% and 105% and 95.9%
viability, T/C (compound 3.16 µM): 103% and 99% and 107%
viability, T/C (compound 10 µM): 94.9% and 89% and 90.3%
IC50 (curve of compound): > 10 µM

COc1ccc([C@@H](O)c2cc(-c3ncnc4cc(N5CCOCC5)ccc34)c(F)cc2Cl)nn1
viability, T/C (compound 0.0316 µM): 94% and 96% and 96.8%
viability, T/C (compound 0.1 µM): 79.5% and 83.5% and 87.4%
viability, T/C (compound 0.316 µM): 86.8% and 78% and 76%
viability, T/C (compound 1 µM): 71.7% and 68.9% and 70.9%
viability, T/C (compound 3.16 µM): 59% and 58.1% and 55%
viability, T/C (compound 10 µM): 35.5% and 33% and 38.2%
IC50 (curve of compound): 4.86 µM and 4.08 µM and 4.45 µM

O=C(Nc1ccc(O)c(NS(=O)(=O)c2ccc(F)cc2)c1)c1ccc(-c2ccccc2)cc1
viability, T/C (compound 0.0316 µM): 98% and 103% and 91.6%
viability, T/C (compound 0.1 µM): 107% and 100% and 93.8%
viability, T/C (compound 0.316 µM): 101% and 88.4% and 88.6%
viability, T/C (compound 1 µM): 100% and 110% and 97.2%
viability, T/C (compound 3.16 µM): 112% and 118% and 108%
viability, T/C (compound 10 µM): 117% and 97.2% and 76%
IC50 (curve of compound): > 10 µM

COc1cc(C2c3cc4c(cc3C(OC3OC5COC(C)OC5C(O)C3O)C3COC(=O)C23)OCO4)cc(OC)c1O (stereo not drawn) + COC1C(OC(N)=O)C(O)C(Oc2ccc3c(O)c(NC(=O)c4ccc(O)c(CC=C(C)C)c4)c(=O)oc3c2C)OC1(C)C
IC50 (curve of first compound, second compound 0.0316 µM): 5.34 µM
IC50 (curve of first compound, second compound 0.1 µM): 3.9 µM
IC50 (curve of first compound, second compound 0.316 µM): 4 µM
IC50 (curve of first compound, second compound 1 µM): 4.58 µM
IC50 (curve of first compound, second compound 3.16 µM): 5.93 µM
IC50 (curve of first compound, second compound 10 µM): 3.8 µM
viability, T/C (second compound 0.0316 µM, first compound 0.0316 µM): 96.7%
viability, T/C (second compound 0.0316 µM, first compound 0.1 µM): 81.8%
viability, T/C (second compound 0.0316 µM, first compound 0.316 µM): 67.8%
viability, T/C (second compound 0.0316 µM, first compound 1 µM): 61.6%
viability, T/C (second compound 0.0316 µM, first compound 3.16 µM): 56.2%
viability, T/C (second compound 0.0316 µM, first compound 10 µM): 44.4%
viability, T/C (second compound 0.1 µM, first compound 0.0316 µM): 93.7%
viability, T/C (second compound 0.1 µM, first compound 0.1 µM): 85.5%
viability, T/C (second compound 0.1 µM, first compound 0.316 µM): 72%
viability, T/C (second compound 0.1 µM, first compound 1 µM): 59.2%
viability, T/C (second compound 0.1 µM, first compound 3.16 µM): 53.8%
viability, T/C (second compound 0.1 µM, first compound 10 µM): 43.1%
viability, T/C (second compound 0.316 µM, first compound 0.0316 µM): 92%
viability, T/C (second compound 0.316 µM, first compound 0.1 µM): 84.4%
viability, T/C (second compound 0.316 µM, first compound 0.316 µM): 75.7%
viability, T/C (second compound 0.316 µM, first compound 1 µM): 59.8%
viability, T/C (second compound 0.316 µM, first compound 3.16 µM): 54%
viability, T/C (second compound 0.316 µM, first compound 10 µM): 41.9%
viability, T/C (second compound 1 µM, first compound 0.0316 µM): 100%
viability, T/C (second compound 1 µM, first compound 0.1 µM): 87.5%
viability, T/C (second compound 1 µM, first compound 0.316 µM): 71.3%
viability, T/C (second compound 1 µM, first compound 1 µM): 58.9%
viability, T/C (second compound 1 µM, first compound 3.16 µM): 58.2%
viability, T/C (second compound 1 µM, first compound 10 µM): 42.3%
viability, T/C (second compound 3.16 µM, first compound 0.0316 µM): 92.5%
viability, T/C (second compound 3.16 µM, first compound 0.1 µM): 81.4%
viability, T/C (second compound 3.16 µM, first compound 0.316 µM): 69.8%
viability, T/C (second compound 3.16 µM, first compound 1 µM): 64.1%
viability, T/C (second compound 3.16 µM, first compound 3.16 µM): 53.5%
viability, T/C (second compound 3.16 µM, first compound 10 µM): 46.5%
viability, T/C (second compound 10 µM, first compound 0.0316 µM): 90.6%
viability, T/C (second compound 10 µM, first compound 0.1 µM): 80%
viability, T/C (second compound 10 µM, first compound 0.316 µM): 64.7%
viability, T/C (second compound 10 µM, first compound 1 µM): 60.5%
viability, T/C (second compound 10 µM, first compound 3.16 µM): 54.4%
viability, T/C (second compound 10 µM, first compound 10 µM): 42.1%
